According to US10813356B2, “Herbicidal composition comprising cinmethylin and dimethenamid” (BASF Agro B.V., priority 2015, dated 2020):

How the values were obtained:
Conditions in all cases: 20 DAT
[1] = test system: AMBEL; assay: Greenhouse preemergence herbicidal activity; assay type: in vivo, Ambrosia elatior
Procedure: (§1) The test plants have been seeded, separately for each species, in plastic containers in sandy loamy soil containing 5% of organic matter.
(§2) The containers were irrigated gently to promote germination and growth and subsequently covered with transparent plastic hoods until the plants had rooted.
(§3) The plants have been cultivated due to their individual requirements at 10-25° C. and 20-35° C.
(§4) The plants were irrigated due to their necessity.
(§5) The racemic mixture (±)-2-exo-(2-Methylbenzyloxy)-1-methyl-4-isopropyl-7-oxabicyclo[2.2.1]heptane was used as herbicide A and formulated as emulsifiable concentrates with an active ingredient concentration of 50 g/l, 100 g/l or 750 g/l respectively.
(§6) Dimethenamid-P was used as emulsifiable concentrate (EC) formulation having an active ingredient concentration of 720 g/l.
(§7) In the following experiments, the herbicidal activity for the individual herbicidal compositions (solo and mixture applications) was assessed 20 days after treatment (DAT). […]
(§8) The value E corresponds to the effect (plant damage or injury) which is to be expected if the activity of the individual compounds is additive. If the observed effect is higher than the value E calculated according to the Colby equation, a synergistic effect is present.

[2] = test system: HELAN; assay: Greenhouse preemergence herbicidal activity; assay type: in vivo, Helianthus annuus
Procedure: as §1, §2, §3, §4, §5, §6, §7, §8

[3] = test system: THLAR; assay: Greenhouse preemergence herbicidal activity; assay type: in vivo, Thlaspi arvense
Procedure: as §1, §2, §3, §4, §5, §6
(§9) In the following experiments, the herbicidal activity for the individual herbicidal compositions (solo and mixture applications) was assessed 20 days after treatment (DAT).
(§10) The evaluation for the damage on undesired weeds caused by the chemical compositions was carried out using a scale from 0 to 100%, compared to the untreated control plants. Here, 0 means no damage and 100 means complete destruction of the plants.
(§11) E=X+Y−(X·Y/100) where X=effect in percent using herbicide A at an application rate a; • Y=effect in percent using herbicide B at application rate b; • E=expected effect (in %) of herbicide A+herbicide B at application rates a+b.
as §8

[4] = test system: ALOMY; assay: Greenhouse preemergence herbicidal activity; assay type: in vivo, Alopecurus myosuroides
Procedure: as §1, §2, §3, §4, §5, §6, §7, §8

[5] = test system: SORHA; assay: Greenhouse preemergence herbicidal activity; assay type: in vivo, Sorghum halepense
Procedure: as §1, §2, §3, §4, §5, §6, §9, §10, §11, §8

[6] = test system: ANTAR; assay: Greenhouse postemergence herbicidal activity; assay type: in vivo, Anthemis arvensis
Procedure: as §1
(§12) For the post emergence treatment, the plants were first grown to the 2 leaf station (GS 12). Here, the herbicidal compositions were suspended or emulsified in water as distribution medium and sprayed using finely distributing nozzles.
as §3, §4, §5, §6, §9, §10, §11, §8

[7] = test system: ABUTH; assay: Greenhouse preemergence herbicidal activity; assay type: in vivo, Abutilon theophrasti
Procedure: as §1, §2, §3, §4, §5, §6, §9, §10, §11, §8

[8] = test system: ANTAR; assay: Greenhouse preemergence herbicidal activity; assay type: in vivo, Anthemis arvensis
Procedure: as §1, §2, §3, §4, §5, §6, §9, §10, §11, §8

[9] = test system: AVEFA; assay: Greenhouse preemergence herbicidal activity; assay type: in vivo, Avena fatua
Procedure: as §1, §2, §3, §4, §5, §6, §9, §10, §11, §8

[10] = test system: GALAP; assay: Greenhouse preemergence herbicidal activity; assay type: in vivo, Galium aparine
Procedure: as §1, §2, §3, §4, §5, §6, §9, §10, §11, §8

[11] = test system: POLCO; assay: Greenhouse preemergence herbicidal activity; assay type: in vivo, Polygonum convolvulus
Procedure: as §1, §2, §3, §4, §5, §6, §9, §10, §11, §8

[12] = test system: SSYOF; assay: Greenhouse preemergence herbicidal activity; assay type: in vivo, Sisymbrium officinale
Procedure: as §1, §2, §3, §4, §5, §6, §9, §10, §11, §8

[13] = test system: BRSNW; assay: Greenhouse postemergence herbicidal activity; assay type: in vivo, Brassica napus
Procedure: as §1, §12, §3, §4, §5, §6, §7, §8

[14] = solo Dimethenamid-P 125 g ai/ha
[15] = solo Dimethenamid-P 500 g ai/ha
[16] = solo Dimethenamid-P 250 g ai/ha
[17] = solo Dimethenamid-P 62.5 g ai/ha
[18] = solo Dimethenamid-P 37.5 g ai/ha
[19] = solo Dimethenamid-P 150 g ai/ha
[20] = solo Dimethenamid-P 300 g ai/ha

For COC[C@H](C)N(C(=O)CCl)c1c(C)csc1C [Dimethenamid-P, (S)-2-chloro-N-(2,4-dimethyl-3-thienyl)-N-(2-methoxy-1-methylethyl)acetamide], the herbicidal activity [1, 14] was 35%, the herbicidal activity [2, 15] was 30% and the herbicidal activity [3, 14] was 40%. It also gave a herbicidal activity [3, 16] of 70%, a herbicidal activity [3, 15] of 90% and a herbicidal activity [4, 17] of 25%. The herbicidal activity [5, 18] was 30%, the herbicidal activity ([5]; solo Dimethenamid-P 75 g ai/ha) was 70% and the herbicidal activity [6, 18] was 0%. For the same compound, the herbicidal activity ([6]; solo Dimethenamid-P 75 g ai/ha) was 0%, the herbicidal activity [6, 19] was 35% and the herbicidal activity [6, 20] was 45%. The herbicidal activity [7, 14] was 10%, the herbicidal activity [7, 16] was 25% and the herbicidal activity [8, 18] was 20%. The herbicidal activity [8, 17] was 75%, the herbicidal activity ([8]; solo Dimethenamid-P 75 g ai/ha) was 50% and the herbicidal activity [8, 14] was 95%. It also gave a herbicidal activity [8, 19] of 85%, a herbicidal activity [8, 16] of 98% and a herbicidal activity [8, 20] of 90%. It also gave a herbicidal activity [9, 18] of 0%, a herbicidal activity [9, 17] of 0% and a herbicidal activity ([9]; solo Dimethenamid-P 75 g ai/ha) of 0%. It also gave a herbicidal activity [9, 14] of 25%, a herbicidal activity [10, 17] of 20% and a herbicidal activity [10, 19] of 70%. For the same compound, the herbicidal activity [10, 16] was 75%, the herbicidal activity [10, 20] was 75% and the herbicidal activity [10, 15] was 80%. It also gave a herbicidal activity [11, 18] of 0%, a herbicidal activity [11, 17] of 0% and a herbicidal activity ([11]; solo Dimethenamid-P 75 g ai/ha) of 0%. It also gave a herbicidal activity [11, 14] of 0%, a herbicidal activity [11, 16] of 30% and a herbicidal activity [11, 15] of 60%. It also gave a herbicidal activity [12, 17] of 0%, a herbicidal activity [12, 14] of 70% and a herbicidal activity [12, 16] of 98%. For the same compound, the herbicidal activity ([13]; solo Dimethenamid-P 75 g ai/ha) was 20%.

Work on “(±)-2-exo-(2-Methylbenzyloxy)-1-methyl-4-isopropyl-7-oxabicyclo[2.2.1]heptane [herbicide A]” yielded a herbicidal activity ([1]; solo herbicide A 62.5 g ai/ha) of 0%, a herbicidal activity ([2]; solo herbicide A 125 g ai/ha) of 0% and a herbicidal activity ([3]; solo herbicide A 62.5 g ai/ha) of 65%. The herbicidal activity ([3]; solo herbicide A 125 g ai/ha) was 75%, the herbicidal activity ([3]; solo herbicide A 500 g ai/ha) was 90% and the herbicidal activity ([4]; solo herbicide A 31.25 g ai/ha) was 85%. The herbicidal activity ([5]; solo herbicide A 62.5 g ai/ha) was 80%, the herbicidal activity ([5]; solo herbicide A 125 g ai/ha) was 90% and the herbicidal activity ([6]; solo herbicide A 62.5 g ai/ha) was 0%. The herbicidal activity ([6]; solo herbicide A 125 g ai/ha) was 0%, the herbicidal activity ([6]; solo herbicide A 250 g ai/ha) was 40% and the herbicidal activity ([6]; solo herbicide A 500 g ai/ha) was 65%. For the same compound, the herbicidal activity ([7]; solo herbicide A 62.5 g ai/ha) was 55%, the herbicidal activity ([7]; solo herbicide A 125 g ai/ha) was 65% and the herbicidal activity ([8]; solo herbicide A 31.25 g ai/ha) was 0%. The herbicidal activity ([8]; solo herbicide A 250 g ai/ha) was 40%, the herbicidal activity ([8]; solo herbicide A 500 g ai/ha) was 65% and the herbicidal activity ([9]; solo herbicide A 31.25 g ai/ha) was 0%. The herbicidal activity ([9]; solo herbicide A 125 g ai/ha) was 50%, the herbicidal activity ([10]; solo herbicide A 31.25 g ai/ha) was 0% and the herbicidal activity ([10]; solo herbicide A 125 g ai/ha) was 20%. It also gave a herbicidal activity ([10]; solo herbicide A 250 g ai/ha) of 65%, a herbicidal activity ([10]; solo herbicide A 500 g ai/ha) of 80% and a herbicidal activity ([11]; solo herbicide A 31.25 g ai/ha) of 0%. For the same compound, the herbicidal activity ([11]; solo herbicide A 62.5 g ai/ha) was 0%, the herbicidal activity ([11]; solo herbicide A 125 g ai/ha) was 0% and the herbicidal activity ([11]; solo herbicide A 250 g ai/ha) was 0%. The herbicidal activity ([12]; solo herbicide A 31.25 g ai/ha) was 0%, the herbicidal activity ([12]; solo herbicide A 62.5 g ai/ha) was 0% and the herbicidal activity ([12]; solo herbicide A 125 g ai/ha) was 50%. It also gave a herbicidal activity ([13]; solo herbicide A 125 g ai/ha) of 0%.
